The values below come from PubChem BioAssay (NCI).

Holding throughout (assay): NCI anticancer screen, dose series, 48 h
The test system of assay [1] is IGROV1 ovarian.
Assay [2] relates to OVCAR-5 ovarian.
Assay [3] has as its system A498 renal.
Assay [4] concerns K-562 leukemia.
For assay [5], the system named is MALME-3M melanoma.
Assay [6] relates to CAKI-1 renal.
Assay [7] relates to SK-MEL-5 melanoma.
The test system of assay [8] is OVCAR-8 ovarian.
Assay [9] relates to NCI-H23 lung.
The test system of assay [10] is MOLT-4 leukemia.
Assay [11] relates to TK-10 renal.
Assay [12] relates to SK-OV-3 ovarian.
The test system of assay [13] is NCI-H226 lung.
The subject of assay [14] is HOP-62 NSCLC.
Assay [15] relates to SNB-19 CNS.
For assay [16], the system named is NCI-H460 lung.
Assay [17] has as its system HL-60(TB) leukemia.
Assay [18] deals with LOX IMVI melanoma.
Assay [19] relates to A549 NSCLC.

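Five concentrations, 48 hours, 96-well plates. GI50: concentration for 50% inhibition of growth. Definition used: TGI = concentration required for complete inhibition of growth.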

Consider `O=C(O)Cc1ccc(N2N=C(c3ccccc3)CC2=O)cc1`, for which the TGI in assay [1], in assay [2], in assay [3], in [4], in assay [5] and in assay [6] was > 100 µM throughout. For the same molecule, the TGI in assay [7], in [8], in assay [9], in assay [10], in [11] and in [12] was > 100 µM in each case. Further, the TGI in [13], in assay [14], in assay [15], in assay [16] and in assay [17] was > 100 µM in each case.
As for `[Cl-].[Rh+3].c1ccc(-c2ccnc3c2ccc2c(-c4ccccc4)ccnc23)cc1.c1ccc(-c2ccnc3c2ccc2c(-c4ccccc4)ccnc23)cc1.c1ccc(-c2ccnc3c2ccc2c(-c4ccccc4)ccnc23)cc1`, the TGI in assay [1] was > 100 µM; in [2], > 100 µM; in assay [3], > 83.4 µM; in [4] it was > 78.4 µM; in assay [5] it was 82.9 µM; in assay [6], > 100 µM. Moreover, the TGI was 50.3 µM in assay [7]; > 100 µM in [8]; > 100 µM in assay [9]; > 100 µM in [18]; > 100 µM in assay [10]; > 100 µM in assay [12]. In addition, the TGI in [13] is > 100 µM; in [14], > 100 µM; in assay [15] it was > 100 µM; in assay [16] it was > 100 µM; in assay [19] it was > 100 µM; in [17] it was 60.3 µM. For the same molecule, the GI50 in [6] is 60.5 µM.
As for `CN(C)CCNCc1c2ccccc2c(CNCCN(C)C)c2ccccc12`, the TGI in assay [1] is > 69.4 µM; in [2] it was 43.5 µM; in assay [3], 55.9 µM; in assay [4] it was > 100 µM; in assay [5], 35.4 µM; in assay [7], 17.9 µM. The TGI in assay [8] was > 100 µM; in assay [9] it was > 100 µM; in [18] it was 38.7 µM; in assay [10] it was 8.31 µM; in assay [12] it was 42.5 µM; in assay [13], 47 µM. In addition, the TGI in assay [14] is 75.5 µM; in assay [16], > 100 µM; in [19], > 59.9 µM; in [17], 46.8 µM.
For the molecule `C/C=C(/C)C(=O)O[C@@H]1c2c(C)coc2C[C@H]2CC[C@H](O)[C@H](C)[C@]21C`, the TGI in [1] was > 100 µM; in assay [2] it was > 100 µM; in assay [4] it was > 100 µM; in assay [5] it was 77.9 µM; in assay [6], > 100 µM; in [7], > 100 µM. The TGI in assay [8], in assay [9], in assay [18], in assay [10], in assay [11] and in assay [12] was > 100 µM each time. Moreover, the TGI in assay [13] was > 100 µM; in assay [14], > 100 µM; in assay [15] it was > 100 µM; in [16] it was > 100 µM; in [17] it was 87 µM.
Take `COc1ccc(/C(Cl)=C(\C=O)c2ccc(F)cc2)cc1`: the TGI in [1] was 53.6 µM; in [3] it was 52.7 µM; in assay [4], > 100 µM; in assay [5], 48 µM; in assay [6], 41 µM; in [7], 27.9 µM. Besides, the TGI in assay [8] is > 100 µM; in [9], 72.9 µM; in assay [18], 39.3 µM; in [10], 50.9 µM; in assay [11], > 100 µM; in [12], 77.1 µM. Also, the TGI was 67.9 µM in [13]; 59.3 µM in [14]; > 100 µM in [15]; 20.1 µM in assay [16]; 9.12 µM in assay [17].
In the case of `C=CC1OC(CCCOC(=O)C(C)(C)C)O[C@@H]1CC` (stereo partly drawn), the TGI in [1], in assay [2], in [3], in assay [6], in assay [7] and in [8] was > 100 µM in each case. The TGI in assay [9], in assay [10], in assay [11], in assay [12], in assay [13] and in assay [14] was > 100 µM throughout. Also, the TGI in [15], in assay [16], in [19] and in assay [17] was > 100 µM in each case.
Take `C=C(C)C1Cc2c(cc(O)c3c(=O)c4ccccc4n(C)c23)O1` (stereo not drawn): the TGI was > 100 µM in assay [2]; 92.6 µM in assay [3]; > 100 µM in assay [5]; 56.7 µM in [6]; > 100 µM in [7]; > 100 µM in assay [9]. In addition, the TGI is 37.2 µM in assay [18]; > 100 µM in assay [10]; 34.8 µM in assay [11]; 84.6 µM in assay [12]; > 100 µM in assay [13]; 61.3 µM in assay [14]. For the same molecule, the TGI was 34.5 µM in [15], > 100 µM in [16], > 100 µM in [19] and > 100 µM in [17].
As for `O=[N+]([O-])c1ccc(/C=C/c2ccc(N=Nc3ccc(/C=C/c4ccc([N+](=O)[O-])cc4S(=O)(=O)O)c(S(=O)(=O)O)c3)cc2S(=O)(=O)O)c(S(=O)(=O)O)c1`, the TGI in assay [1], in [2], in assay [3], in assay [4], in assay [5] and in assay [7] was > 100 µM throughout. For the same molecule, the TGI in assay [8], in assay [9], in assay [18], in assay [10], in assay [12] and in assay [13] was > 100 µM in each case. The TGI in assay [14], in [16], in assay [19] and in assay [17] was > 100 µM throughout.
Take `CC(C)(C)OC(=O)C1=C(C(=O)OC(C)(C)C)SC2(S1)C(C(=O)OC(C)(C)C)=C(C(=O)OC(C)(C)C)Sc1c2ssc1=O`: the TGI in assay [1], in assay [2], in [3], in assay [4], in assay [5] and in [6] was > 100 µM in each case. Besides, the TGI in assay [7] is > 100 µM; in assay [8] it was > 100 µM; in [9] it was > 100 µM; in [18], > 100 µM; in [10], 95.9 µM; in [11], > 100 µM. Also, the TGI in [12], in assay [14], in assay [15], in assay [16], in [19] and in assay [17] was > 100 µM each time.
On to `COC(=O)[C@@H]1c2cc3c(c(O)c2[C@@H](OC)C[C@@]1(C)O)C(=O)c1c(O)cc2c(c1C3=O)OC1O[C@@]2(C)[C@H](O)[C@@H](N(C)C)[C@@H]1O`, for which the TGI in [1] was determined as 1.7 µM; in assay [2], 2.16 µM; in assay [3], 0.764 µM; in assay [4] it was 7.31 µM; in assay [5], 2.13 µM; in [6], 0.749 µM. The TGI in assay [7] is 1.05 µM; in assay [8], 2.05 µM; in [9], 1.49 µM; in assay [10], > 150 µM; in assay [12], 3.94 µM; in assay [13] it was 0.877 µM. For the same molecule, the TGI was found to be 1.06 µM in assay [14], 2.37 µM in [15], 0.488 µM in assay [16] and 1.45 µM in assay [19].
